Assay results published in ChEMBL document CHEMBL5236603, “Discovery of mobocertinib, a potent, oral inhibitor of EGFR exon 20 insertion mutations in non-small cell lung cancer” (Bioorg Med Chem Lett, 2023).

Experiments:
[1] = Inhibition of mouse EGFR D770_N771insNPG mutant stably expressed in mouse BaF3 cells assessed as cell viability incubated for 3 days by Cell Titer-Glo assay; format: cell-based; details: BaF3, 72 h
[2] = biological target: Epidermal growth factor receptor (Homo sapiens, UniProt P00533); test: Inhibition of […]-induced EGFR phosphorylation in human A549 cells pretreated for 2 hrs followed by EGF stimulation by immune assay; format: cell-based
[3] = Inhibition of mouse EGFR V769_D770insASV mutant stably expressed in mouse BaF3 cells assessed as cell viability incubated for 3 days by Cell Titer-Glo assay; format: cell-based; details: BaF3, 72 h
[4] = AUClast in CD-1 rat at 10 mg/kg, po by LC/MS/MS analysis; format: ADME, organism-based; set-up: dose 10 mg/kg, route po; details: in vivo
[5] = Cmax in CD-1 rat at 10 mg/kg, po by LC/MS/MS analysis; format: ADME, organism-based; set-up: dose 10 mg/kg, route po; details: in vivo
[6] = Cmax in CD-1 mouse at 10 mg/kg, po by LC/MS/MS analysis; format: ADME, organism-based; set-up: dose 10 mg/kg, route po; details: in vivo
[7] = AUClast in CD-1 mouse at 10 mg/kg, po by LC/MS/MS analysis; format: ADME, organism-based; set-up: dose 10 mg/kg, route po; details: in vivo
BaF3 [8] = test: In vivo antitumor activity against mouse BaF3 cells expressing EGFR exon 20 insertion (ex20ins) ASV implanted in SCID mouse assessed as tumor growth inhibition at 50 mg/kg, po administered for 7 consecutive days; format: functional; details: 168 h, time 7 day, read-out: TGI
BaF3 [9] = test: In vivo antitumor activity against mouse BaF3 cells expressing EGFR exon 20 insertion (ex20ins) ASV implanted in SCID mouse assessed as tumor regression at 100 mg/kg, po administered for 7 consecutive days; format: functional; details: time 7 day
[10] = Cmax in CD rat at 5 mg/kg, po by LC/MS/MS analysis; format: ADME, organism-based; set-up: dose 5 mg/kg, route po; details: in vivo
[11] = AUC (0 to last)in CD rat at 5 mg/kg, po by LC/MS/MS analysis; format: ADME, organism-based; set-up: dose 5 mg/kg, route po; details: in vivo
BaF3 [12] = test: In vivo antitumor activity against mouse BaF3 cells expressing EGFR exon 20 insertion (ex20ins) ASV implanted in SCID mouse assessed as tumor growth inhibition at 100 mg/kg, po administered for 7 consecutive days; format: functional; details: BaF3, 168 h, time 7 day, read-out: TGI
[13] = Inhibition of mouse EGFR Del-T790M double mutant stably expressed in mouse BaF3 cells assessed as cell viability incubated for 3 days by Cell Titer-Glo assay; format: cell-based; details: BaF3, 72 h
[14] = Inhibition of mouse EGFR delE746_A750 mutant stably expressed in mouse BaF3 cells assessed as cell viability incubated for 3 days by Cell Titer-Glo assay; format: cell-based; details: BaF3, 72 h

Epidermal growth factor receptor, sequence (P00533 whole entry): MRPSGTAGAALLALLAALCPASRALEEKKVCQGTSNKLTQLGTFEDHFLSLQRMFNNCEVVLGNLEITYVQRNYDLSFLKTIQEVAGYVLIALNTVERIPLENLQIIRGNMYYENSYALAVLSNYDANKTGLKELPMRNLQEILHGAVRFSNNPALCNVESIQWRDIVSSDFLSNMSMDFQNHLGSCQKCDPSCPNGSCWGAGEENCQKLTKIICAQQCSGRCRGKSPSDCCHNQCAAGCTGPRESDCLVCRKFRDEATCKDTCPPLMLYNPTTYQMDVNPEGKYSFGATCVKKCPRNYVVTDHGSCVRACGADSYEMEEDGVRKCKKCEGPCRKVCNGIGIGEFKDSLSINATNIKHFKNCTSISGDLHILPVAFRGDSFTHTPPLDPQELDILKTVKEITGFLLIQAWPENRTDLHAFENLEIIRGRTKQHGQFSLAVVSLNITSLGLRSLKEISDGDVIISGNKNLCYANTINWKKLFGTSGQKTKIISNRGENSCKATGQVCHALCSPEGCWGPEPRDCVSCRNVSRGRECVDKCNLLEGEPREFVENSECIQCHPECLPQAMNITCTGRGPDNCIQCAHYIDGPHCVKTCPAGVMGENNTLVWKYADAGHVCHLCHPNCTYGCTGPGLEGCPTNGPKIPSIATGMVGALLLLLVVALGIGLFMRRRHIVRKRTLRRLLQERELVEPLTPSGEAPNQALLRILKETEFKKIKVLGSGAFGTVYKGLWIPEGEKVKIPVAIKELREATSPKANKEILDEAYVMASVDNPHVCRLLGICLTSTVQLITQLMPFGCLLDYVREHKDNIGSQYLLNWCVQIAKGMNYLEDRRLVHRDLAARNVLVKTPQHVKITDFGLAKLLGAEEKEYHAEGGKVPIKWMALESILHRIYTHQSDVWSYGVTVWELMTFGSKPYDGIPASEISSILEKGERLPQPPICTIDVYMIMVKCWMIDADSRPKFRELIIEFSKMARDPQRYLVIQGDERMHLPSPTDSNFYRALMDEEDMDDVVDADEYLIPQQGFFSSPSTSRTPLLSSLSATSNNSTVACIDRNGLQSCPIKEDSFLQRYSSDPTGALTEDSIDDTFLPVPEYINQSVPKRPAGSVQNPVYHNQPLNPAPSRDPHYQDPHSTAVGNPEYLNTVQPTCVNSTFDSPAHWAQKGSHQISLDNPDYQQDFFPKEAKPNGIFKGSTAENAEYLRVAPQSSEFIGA

IC50 [2] [nM]	AUC(0-t) [4] [ng·h/mL]	Cmax [5] [ng/mL]	Cmax [6] [ng/mL]	AUC(0-t) [7] [ng·h/mL]	Cmax [10] [ng/mL]	AUC(0-t) [11] [ng·h/mL]	Compound	IC50 [1] [nM]	IC50 [3] [nM]	inhibition in vivo at 50 mg/kg (BaF3 [8]) [%]	Activity (BaF3 [9]) [%]	inhibition in vivo at 100 mg/kg (BaF3 [12]) [%]	IC50 [13] [nM]	IC50 [14] [nM]
2970	–	–	–	–	–	–	C=CC(=O)Nc1cc(Nc2ncc(Cl)c(-c3c4n(c5ccccc35)CCOC4)n2)c(OC)cc1N(C)CCN(C)C	754	1020	–	–	–	–	–
288	2670	248	183	655	–	–	C=CC(=O)Nc1cc(Nc2nccc(-c3c4n(c5ccccc35)CCOC4)n2)c(OC)cc1N(C)CCN(C)C	53	112	–	–	–	–	–
71	–	–	–	–	–	–	C=CC(=O)Nc1cc(Nc2ncc(Cl)c(-c3cn4c5c(cccc35)CCC4)n2)c(OC)cc1N(C)CCN(C)C	22	58	–	–	–	–	–
–	2680	207	97	438	–	–	C=CC(=O)Nc1cc(Nc2nccc(-c3cn4c5c(cccc35)OCC4)n2)c(OC)cc1N(C)CCN(C)C	52	137	–	–	–	–	–
57	1390	107	145	643	–	–	C=CC(=O)Nc1cc(Nc2ncc(C(=O)OC(C)C)c(-c3cn(C)c4ccccc34)n2)c(OC)cc1N(C)C[C@@H]1CCCN1C	8	14	82	-51	–	–	–
79	38	16	42	87	–	–	C=CC(=O)Nc1cc(Nc2ncc(C(=O)OC(C)C)c(-c3cn(C(C)=O)c4ccccc34)n2)c(OC)cc1N(C)CCN(C)C	3	4	–	–	–	–	–
39	–	–	–	–	–	–	C=CC(=O)Nc1cc(Nc2ncc(C(=O)OC(C)C)c(-c3cn4c5c(cccc35)CCC4)n2)c(OC)cc1N(C)CCN(C)C	6.57	12.4	–	–	–	–	–
49	–	–	31	96	–	–	C=CC(=O)Nc1cc(Nc2ncc(-c3nc(C)no3)c(-c3cn4c5c(cccc35)CCC4)n2)c(OC)cc1N(C)CCN(C)C	11	38	–	–	–	–	–
147	–	–	–	–	–	–	C=CC(=O)Nc1cc(Nc2ncc(C(=O)NC)c(-c3cn4c5c(cccc35)CCC4)n2)c(OC)cc1N(C)CCN(C)C	37.6	136	–	–	–	–	–
36	–	–	–	–	–	–	C=CC(=O)Nc1cc(Nc2ncc(Cl)c(-c3cn4c5c(cccc35)OCC4)n2)c(OC)cc1N(C)CCN(C)C	15	35	–	–	–	–	–
142	–	–	–	–	–	–	C=CC(=O)Nc1cc(Nc2ncc(C(=O)OCC(C)C)c(-c3cn(C)c4ccccc34)n2)c(OC)cc1N(C)CCN(C)C	14	43	–	–	–	–	–
43	323	40	94	294	–	–	C=CC(=O)Nc1cc(Nc2ncc(C(=O)OC(C)C)c(-c3cn(C)c4ccccc34)n2)c(OC)cc1N(C)C[C@H]1CCCN1C	6	12	72	-10	–	–	–
95	–	–	–	–	–	–	C=CC(=O)Nc1cc(Nc2ncc(Cl)c(-c3cnn4ccccc34)n2)c(OC)cc1N(C)CCN(C)C	32	59	–	–	–	–	–
224	–	–	–	–	–	–	C=CC(=O)Nc1cc(Nc2ncc(C(=O)OC(C)C)c(-c3cn(C4CC4)c4ccccc34)n2)c(OC)cc1N(C)CCN(C)C	23	30	–	–	–	–	–
15	–	–	59	105	90	853	C=CC(=O)Nc1cc(Nc2ncc(-c3cnn(C)c3)c(-c3cn4c5c(cccc35)CCC4)n2)c(OC)cc1N(C)CCN(C)C	–	16	–	–	–	–	–
19	1540	113	45	129	–	–	C=CC(=O)Nc1cc(Nc2ncc(C(=O)OCC)c(-c3cn(C)c4ccccc34)n2)c(OC)cc1N(C)CCN(C)C	6	13	–	–	–	–	–

IC50 [2] [nM]	AUC(0-t) [4] [ng·h/mL]	Cmax [5] [ng/mL]	Cmax [6] [ng/mL]	AUC(0-t) [7] [ng·h/mL]	Cmax [10] [ng/mL]	AUC(0-t) [11] [ng·h/mL]	Compound	IC50 [1] [nM]	IC50 [3] [nM]	inhibition in vivo at 50 mg/kg (BaF3 [8]) [%]	Activity (BaF3 [9]) [%]	inhibition in vivo at 100 mg/kg (BaF3 [12]) [%]	IC50 [13] [nM]	IC50 [14] [nM]
42	–	–	–	–	–	–	C#Cc1cnc(Nc2cc(NC(=O)C=C)c(N(C)CCN(C)C)cc2OC)nc1-c1cn2c3c(cccc13)CCC2	9.8	25	–	–	–	–	–
45	1140	86	57	234	–	–	C=CC(=O)Nc1cc(Nc2ncc(-c3ncco3)c(-c3cn4c5c(cccc35)CCC4)n2)c(OC)cc1N(C)CCN(C)C	9	29	–	–	–	–	–
40	1920	170	20	56	–	–	C=CC(=O)Nc1cc(Nc2ncc(C(=O)OC)c(-c3cn4c5c(cccc35)CCC4)n2)c(OC)cc1N(C)CCN(C)C	6.57	22.1	–	–	–	–	–
24	1920	149	72	631	–	–	C=CC(=O)Nc1cc(Nc2ncc(C(=O)OC(C)C)c(-c3cn(CC)c4ccccc34)n2)c(OC)cc1N(C)CCN(C)C	5	7	–	–	–	–	–
35	58	13	29	200	–	–	C=CC(=O)Nc1cc(Nc2ncc(C#N)c(-c3cn4c5c(cccc35)CCC4)n2)c(OC)cc1N(C)CCN(C)C	3.99	9.38	–	–	76	–	–
405	466	126	81	285	–	–	C=CC(=O)Nc1cc(Nc2nccc(-c3cn4c5c(cccc35)CCC4)n2)c(OC)cc1N(C)CCN(C)C	54	197	–	–	–	–	–
15	427	38	9	22	–	–	C=CC(=O)Nc1cc(Nc2ncc(-c3nnco3)c(-c3cn4c5c(cccc35)CCC4)n2)c(OC)cc1N(C)CCN(C)C	6.2	13	–	–	–	–	–
84	–	–	–	–	–	–	C=CC(=O)Nc1cc(Nc2ncc(C(=O)OC3CCC3)c(-c3cn(C)c4ccccc34)n2)c(OC)cc1N(C)CCN(C)C	9	28	–	–	–	–	–
23	–	–	–	–	–	–	C=CC(=O)Nc1cc(Nc2ncc(C(=O)CC)c(-c3cn4c5c(cccc35)CCC4)n2)c(OC)cc1N(C)CCN(C)C	4.95	17.3	–	–	–	–	–
23	2950	320	218	884	–	–	C=CC(=O)Nc1cc(Nc2ncc(-c3ccnn3C)c(-c3cn4c5c(cccc35)CCC4)n2)c(OC)cc1N(C)CCN(C)C	11	28	–	–	–	–	–
20	2300	207	31	92	–	–	C=CC(=O)Nc1cc(Nc2ncc(C(=O)OC)c(-c3cn(C)c4ccccc34)n2)c(OC)cc1N(C)CCN(C)C	8	18	–	–	–	–	–
32	1480	110	29	102	–	–	C=CC(=O)Nc1cc(Nc2ncc(C(=O)OCC)c(-c3cn4c5c(cccc35)CCC4)n2)c(OC)cc1N(C)CCN(C)C	6.43	15	–	–	–	–	–
–	–	–	–	–	–	–	CN(C)C/C=C/C(=O)Nc1cc2c(Nc3ccc(F)c(Cl)c3)ncnc2cc1O[C@H]1CCOC1 [AFATINIB]	36	44	–	–	–	97	0.6
15	2020	163	46	353	–	–	C=CC(=O)Nc1cc(Nc2ncc(-c3cnn(C(C)C)c3)c(-c3cn4c5c(cccc35)CCC4)n2)c(OC)cc1N(C)CCN(C)C	13	16	–	–	–	–	–
–	–	–	–	–	–	–	C=CC(=O)Nc1cccc(Nc2nc(Nc3ccc(N4CCN(C(C)=O)CC4)cc3OC)ncc2C(F)(F)F)c1 [ROCILETINIB]	179	883	–	–	–	9	25

Compound	IC50 [2] [nM]	AUC(0-t) [4] [ng·h/mL]	Cmax [5] [ng/mL]	Cmax [6] [ng/mL]	AUC(0-t) [7] [ng·h/mL]	Cmax [10] [ng/mL]	AUC(0-t) [11] [ng·h/mL]	IC50 [1] [nM]	IC50 [3] [nM]	inhibition in vivo at 50 mg/kg (BaF3 [8]) [%]	Activity (BaF3 [9]) [%]	inhibition in vivo at 100 mg/kg (BaF3 [12]) [%]	IC50 [13] [nM]	IC50 [14] [nM]
C=CC(=O)Nc1cc(Nc2nccc(-c3cn(C)c4ccccc34)n2)c(OC)cc1N(C)CCN(C)C [OSIMERTINIB]	–	–	98	175	–	–	–	53	158	–	–	–	7	6
